Reference: patent US20240190920A1, “BECLIN 1-TARGETED STAPLED PEPTIDE AND PHARMACEUTICAL COMPOSITION” (Shenzhen Research Institute of the Hong Kong Polytechnic …, priority 2021, published 2024)
“Also recorded” adds a separate entry of the source. Bridge positions count the residues as written; N and C are the ends. Square brackets hold non-standard residues; d marks the D form. Peptide text beside a SMILES is read from it. R8 = C=CCCCCCC[C@@](C)(N)C(=O)O; S5 = C=CCCC[C@](C)(N)C(=O)O

Assays:
[1] = target: T1, Beclin 1 coiled coil domain (Homo sapiens, UniProt Q14457); assay: Isothermal titration calorimetry (ITC) binding affinity; details: 25° C., pH 7.4, Tat-fused peptide, read-out: Kd
T1 construct: the coiled coil domain of human Beclin 1 (residues 176-268); thioredoxin-6xHis fusion tag with HRV 3C protease cleavage site; made in house; host or cells: Escherichia coli BL21(DE3)
Protocol: The expression and purification of Beclin 1 coiled coil domain is performed as described previously. Briefly, the coiled coil domain of human Beclin 1 (residues 176-268) is cloned into the modified pET32a vector containing the human rhinovirus (HRV) 3C protease cleavage site and thioredoxin-6×His fusion tag. Recombinant protein for the Beclin1 coiled oil domain is expressed in Escherichia coli BL21(DE3) and purified by Ni^2+-NTA affinity chromatography (His Trap HP, GE Healthcare) first and followed by size-exclusion chromatography (Superdex 75, GE Healthcare).
ITC assays are carried out by MicroCal PEAQ-ITC Automated (Marvern) at 25° C. All designed peptides and purified protein for the Beclin 1 coiled coil domain are dialyzed into the buffer containing 50 mM Tris, 150 mM NaCl at pH 7.4. For each titration assay, the injection syringe is loaded with 40 μl of peptide and the cell is loaded with Beclin 1 coiled coil domain protein. Typically, titrations consist of 19 injections, and each injection is performed at a time interval of 180 seconds to ensure that the titration peak returns to the baseline. The titration data are analyzed using the MicroCal PEAQ-ITC Analysis software and fitted by the one-site binding model.

HER2 = assay: EGF-induced endolysosomal degradation of HER2, Western blot; assay type: cell-based; details: SKBR3, 2 μM
Protocol: (§1) FIG. 9 is a schematic diagram of the result showing peptides based on (I7-01s) scaffold are potent inducers of endolysosomal trafficking. (a-c) Western blot to assess the HER2 and EGFR levels in SKBR3 cells. Cells are starved overnight and are treated with 200 ng/ml EGF respectively with vehicle control (a), 2 μM Tat-SP4 (b), 2 μM i7-01s-31 (c). (d & e) Time-dependent plots to quantify HER2 and EGFR degradation profiles after three independent experiments. The levels of HER2 (d) and EGFR (e) are normalized to the β-actin level at different time points and then further normalized to time 0, when the ligand EGF is added. Data are presented as mean±SEM (n=3).
In some embodiments, the Beclin 1-targeting stapled peptide provided by the present disclosure can effectively promote endolysosomal trafficking. As a scaffolding member of the PI3KC3 complex, Beclin 1 is essential for multiple PI3KC3-dependent processes including autophagy, endolysosomal trafficking and phagocytosis. To assess the efficacy of the newly designed peptides on the endolysosomal trafficking process, the ligand-induced endolysosomal degradation of cell surface receptors HER2 and EGFR is characterized by western blotting using SKBR3 breast cancer cell line that over-expresses both EGFR and HER2. […] In contrast, i7-01s-31 treatment at 2 μM results in significant reduction of HER2 level, with about 50% decrease at 15 hours post EGF stimulation, and about 70% decrease at 24 hours (as shown in FIGS. 9c & 9d). i7-01s-31 treatment also strongly promotes EGFR degradation, with approximately 60% reduction at 15 hours post EGF stimulation (as shown in FIGS. 9c & 9e).
Whole cell lysates are extracted using Laemmli sample buffer (62.5 mM Tris-HCl, pH 6.8, 2% SDS, 25% glycerol, 5% β-mercaptoethanol) supplemented with EDTA-free protease inhibitor cocktail (Roche). Protein concentration is determined using a standard Bradford assay before immunoblotting. Protein samples are separated by SDS-PAGE, transferred to a PVDF membrane (Millipore, USA), and incubated with the primary antibodies and HRP-conjugated secondary antibodies. […]

HEK293T cells [2] = assay: Trypan blue exclusion cytotoxicity assay in HEK293T cells; assay type: cell-based
Protocol: FIG. 7 is a schematic diagram of the result of evaluating the cytotoxicity of the newly designed stapled peptide on HEK293T cells by the trypan blue exclusion assay.
(§2) Cell viability is measured by trypan blue exclusion assay following the standard protocol provided by the manufacturer. SKBR3 cells are seeded on 96-well plates containing complete medium at a density of 1×10^4 cells per well. Upon cell attachment, cells are treated with the indicated stapled peptide or vehicle control for 24 hours. Afterwards, the number of trypan blue positive staining cells and the number of total cells are manually counted under a light microscope (Olympus). Cell viability is calculated as the number of viable cells divided by the total number of cells. All experiments are repeated in triplicate and the mean is calculated.

EGFR = assay: EGF-induced endolysosomal degradation of EGFR, Western blot; assay type: cell-based; details: SKBR3, 2 μM, 15 hours post EGF stimulation
Protocol: as §1
In some embodiments, the Beclin 1-targeting stapled peptide provided by the present disclosure can effectively promote endolysosomal trafficking. As a scaffolding member of the PI3KC3 complex, Beclin 1 is essential for multiple PI3KC3-dependent processes including autophagy, endolysosomal trafficking and phagocytosis. […]
Whole cell lysates are extracted using Laemmli sample buffer (62.5 mM Tris-HCl, pH 6.8, 2% SDS, 25% glycerol, 5% β-mercaptoethanol) supplemented with EDTA-free protease inhibitor cocktail (Roche). Protein concentration is determined using a standard Bradford assay before immunoblotting. […]

SKBR3 cells [3] = assay: Five-day cell proliferation assay; assay type: cell-based; details: SKBR3, five days, 10 μM
Protocol: (§3) (a) Trypan blue exclusion assay to assess the cytotoxicity IC50 (half maximal inhibitory concentration) of the indicated peptides in SKBR3 cells. Cells are treated with various concentrations of the indicated peptides for 24h. Cell numbers are manually counted by the trypan blue exclusion assay using a hemocytometer. Data are presented as mean±SD from three independent experiments. (b-d) Cell proliferation assay is performed over a time span of five days in SKBR3 cells after treatment with the indicated peptides. Cells are treated with the indicated peptides at day 0 and the cell number is calculated at the given time points. The assay is performed in 96 well plates with three independent measurements. Tat-SC4 is a control peptide with scrambled Tat-SP4 sequence but without the hydrocarbon staple.

SKBR3 cells [4] = assay: Flow cytometry with Annexin V FITC-PI staining; assay type: cell-based
Protocol: FIG. 12 is a schematic diagram of the result showing the peptides based on strategy (i7-01s) scaffold induce cell death with necrotic features. Flow cytometry analysis with Annexin V FITC-PI staining is performed in SKBR3 cells after treatment of the indicated peptides for 24 hours.
The degree of cellular apoptosis and necrosis is assessed by flow cytometry following the standard protocol provided by the manufacturer. Briefly, SKBR3 cells after the indicated peptide treatment are harvested by trypsin, labelled with Annexin V and PI (Invitrogen), subjected to flow cytometer system (BD Accuri C6), and analyzed by BD Accuri C6 software. The cell populations can be distinguished by the staining of Annexin V/PI. Typically, cellular population in the lower left quadrant is live cells (Annexin V^−, PI^−), the lower right quadrant represents early apoptotic cells (Annexin V^+, PI^−), the upper right quadrant represents late apoptotic cells (Annexin V^+, PI^+), the upper left quadrant represents necrotic cells (Annexin V^−, PI^+).

HEK293T cells [5] = assay: Western blot of autophagy markers LC3 and p62; assay type: cell-based
Protocol: FIG. 8 is a schematic diagram showing that the peptides based on the i7-01s scaffold are effective inducers of autophagy. (a) Western blot to assess the p62 level and LC3 lipidation profile in HEK293T cells after treatment with 10- and 20-μM i7-01s-31 for 3 hours, in the presence or absence of CQ. (b)&(c) Quantification of LC3 lipidation profiles from the Western blot data. (d)&(e) Quantification of p62 levels from the Western blot data from (a).
The impact of these two peptides on cellular autophagic activity is examined by detecting the protein levels of LC3 and p62, two molecular markers of autophagy. During the autophagy process, cytosolic protein LC3 is converted from its apo form (LC3-I) to lipidated form (LC3-II) for accumulation on autophagosomes. Thus, an increase in LC3-II level is regarded as a reliable indicator of elevated cellular autophagic activity. Similarly, p62 is an autophagy receptor that is degraded in the lysosome together with autophagic substrates. A decrease in p62 level is also commonly used as an indicator for higher autophagic activity, although some studies have shown that p62 is not as sensitive as LC3-II.
Whole cell lysates are extracted using Laemmli sample buffer (62.5 mM Tris-HCl, pH 6.8, 2% SDS, 25% glycerol, 5% β-mercaptoethanol) supplemented with EDTA-free protease inhibitor cocktail (Roche). Protein concentration is determined using a standard Bradford assay before immunoblotting. Protein samples are separated by SDS-PAGE, transferred to a PVDF membrane (Millipore, USA), and incubated with the primary antibodies and HRP-conjugated secondary antibodies. Protein bands are visualized using ECL reagents. β-actin is used as the internal reference protein to control the loading amount of SDS-PAGE.

SKBR3 cells [6] = assay: Trypan blue exclusion assay, IC50 in SKBR3 cells; assay type: cell-based; details: SKBR3, 24h
Protocol: as §3
as §2, with “Upon cell attachment, cells are treated with the indicated stapled peptide or vehicle control for 24 hours.” left out

T1 sequence (Q14457 176-268): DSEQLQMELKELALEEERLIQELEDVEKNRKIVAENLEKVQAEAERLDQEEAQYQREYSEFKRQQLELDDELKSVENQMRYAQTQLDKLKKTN

**Q.** With CC[C@H](C)[C@@H]1NC(=O)[C@H](C(C)C)NC(=O)[C@H](CC(=O)O)NC(=O)[C@H](C(C)C)NC(=O)[C@H](CC(C)C)NC(=O)[C@](C)(NC(=O)[C@H](CC(N)=O)NC(=O)[C@H](Cc2ccccc2)NC(=O)[C@H](CC(C)C)NC(=O)[C@@H](NC(=O)[C@H](CCCNC(=N)N)NC(=O)[C@H](CCCNC(=N)N)NC(=O)[C@H](CCCNC(=N)N)NC(=O)[C@H](CCC(N)=O)NC(=O)[C@H](CCCNC(=N)N)NC(=O)[C@H](CCCNC(=N)N)NC(=O)[C@H](CCCCN)NC(=O)[C@H](CCCCN)NC(=O)[C@H](CCCNC(=N)N)NC(=O)CNC(=O)[C@H](Cc2ccc(O)cc2)NC(C)=O)C(C)C)CCCCCCC=CCCC[C@@](C)(C(=O)N[C@@H](CCCNC(=N)N)C(=O)N[C@@H](CCCCN)C(=O)N[C@H](C(N)=O)C(C)C)NC(=O)[C@H](CCCCN)NC1=O [i7-01s-31] (Ac-YGRKKRRQRRRVLFN[R8]LVDVIK[S5]RKV-NH2; staple 16-23) as the compound, how does the Kd [1] read?
**A.** 0.33 ± 0.28 µM

**Q.** What about the “decrease of HER2 level” value (HER2; 15 hours post EGF stimulation) of the same compound?
**A.** about 50%

**Q.** What about the “decrease of HER2 level” value (HER2; 24 hours post EGF stimulation) of the same compound?
**A.** about 70%

**Q.** And the cell viability (HEK293T cells [2]; 5 μM, 24 hours)?
**A.** little impact on cell viability

**Q.** And the cytotoxicity (HEK293T cells [2]; 20 μM, 24 h)?
**A.** negligible cytotoxicity

**Q.** And the “reduction of EGFR” value (EGFR)?
**A.** approximately 60%

**Q.** And the “effect on cell proliferation” value (SKBR3 cells [3])?
**A.** completely abolish cell proliferation

**Q.** And the PI positive cells (SKBR3 cells [4]; SKBR3, 10 μM, 24 hours)?
**A.** approximately 30%

**Q.** What about the “change of Annexin V positive cells (apoptosis)” value (SKBR3 cells [4]; SKBR3, 24 hours) of the same compound?
**A.** without notable changes; also recorded: no increase

**Q.** And the “change of PI positive staining cells (dead cells)” value (SKBR3 cells [4]; SKBR3, 24 hours)?
**A.** significantly increased; also recorded: significant increase

**Q.** And the “autophagy induction compared with Tat-SP4” value (HEK293T cells [5])?
**A.** comparable efficacy

**Q.** And the LC3-II levels (HEK293T cells [5]; 10 and 20 μM, 3 hours, absence of CQ)?
**A.** noticeable albeit small increase

**Q.** What about the LC3-II levels (HEK293T cells [5]; 10 and 20 μM, 3 hours, presence of chloroquine (CQ)) of the same compound?
**A.** significantly stronger

**Q.** And the “protein level of p62” value (HEK293T cells [5]; 10 and 20 μM, 3 hours, presence or absence of CQ)?
**A.** does not show any noticeable change

**Q.** And the IC50 (SKBR3 cells [6])?
**A.** 7.12 µM
